Data: US7833964B2, “Methods of reducing visceral fat by increasing levels of insulin-like growth factor-I (IGF-I)” (Tercica, Inc., priority 2003, dated 2010)
Several values for one entry are separate records, joined by “and”; a condition that tells them apart may be missing. Equal entries are not always repeated.

Tests used:
[1] = Change in BMI; format: in vivo, human; details: for BMI Change (SE) Wk 14: 2 weeks after treatment stopped
From the text: The degree of obesity in humans is commonly assessed by calculating the body mass index or BMI. The BMI is essentially correcting body weight for height. Obviously a very tall person will likely weigh more than a person with short stature so this correction for height makes BMI a better gauge of the degree of obesity than uncorrected body weight. Table 6 gives the BMI data for the subjects treated with IGF-I. At baseline the subjects had average BMIs of over 30. Overweight is defined as a BMI of over 25 and obesity is defined as a BMI of over 30. […] Treatment with IGF-I reduced BMI and this effect was maintained until week 14, which was 2 weeks after treatment with IGF-I was stopped. In subjects treated with 20 micrograms of IGF-I, BMI fell by 1.0 kg/m^2 at 12 weeks and 0.9 kg/m^2 at week 14. This effect of IGF-I on BMI was highly statistically significant versus glyburide at week 12 (p=0.019) and week 14 (p=0.0064). Therefore IGF-I had the ability to reduce BMI or directly affect the most widely accepted measure of obesity. […] This greater effect of low dose IGF-I was unexpected.

[2] = Abdominal CT scan: visceral (VAT) and subcutaneous (SAT) adipose tissue, abdominal perimeter; format: in vivo, human; details: for change in abdominal perimeter by CT scan, mean±SEM: 12 weeks
Experimental: All CT scans were performed on GE Sytec 4000 CT scanners or an equivalent scanner.
An initial Abdominal Scan was performed using the following procedure: • 1. After the thigh scan was complete, a small triangular wedge pillow was placed under the subject's knees to help tilt the spine to the correct position. The arms were crossed over the chest/neck with elbows up and out of the way of the abdomen. The subject's underpants were pulled down so that the elastic of the underwear was well out of the way of the site where the scan was taken. • 2. The technician positioned the bed in the scanner so that a lateral topogram could be taken that included at least T12 through L5 of the spine. This picture was recorded on film. • 3. The location of the midsection of L3 was identified. • 4. A 10-mm slice at the level of the midpoint of L3 (angle must be zero so that the slice was perpendicular) was taken at the same settings as were used for the thigh slice, with the exception of the DFOV, which was 35 or 45 (35 for a small person and 45 for a large person).
The entire cross section of the abdomen was on the screen. If the entire abdomen was not on the screen, the picture was reconfigured. Once the entire abdomen was on the screen, the technician downloaded it onto the disk and verified that the image was actually on the disk. This was then recorded on film. • 5. The technician sent the film to the printer at this point. It was a requirement that each film had four pictures, and the film had the lateral topogram of the spine and the slice. • 6. The technician then recorded the exam number, the series number, and the image number of slice. • 7. The subject was then removed from the table if there were no more measurements to obtain and the film was collected.
The same procedures were then followed for the repeat abdominal scans with identical settings and locations being used for the repeat scans.
Slices were downloaded onto the scanner and then retrieved via optical disk (or the Internet if possible) to a computer for analysis. During analysis, the area of intra-abdominal and subcutaneous fat as well as oblique, psoas, quadratum laborum, and sacrospinalis muscles were measured. The images were digitized by optical density to separate bone, muscle, and fat compartments using a modified version of the NIH IMAGE program. Pixel units were converted to area measurements using an internal calibration standard. Digitized images were analyzed in a blinded fashion. The coefficient of variation of repeated analysis of a single scan is <1.5%.
Another independent measurement was that the CT scan assessed the abdominal diameter and the abdominal perimeter (e.g., belt size). The abdominal perimeter in subjects treated with glyburide alone was unchanged (−0.3±0.8 cm, mean±SEM) but in subjects treated with IGF-I at 20 micrograms/kg it was reduced (−1.4±0.8 cm) and was reduced even more in subjects treated with 40 micrograms/kg to (−2.9±1.3 cm). This reduction in “girth” caused by high dose IGF-I was, in layman's terms over an inch, or one belt notch, clearly a significant effect in only 12 weeks.
The body components contributing to these beneficial effects of IGF-I on body weight, BMI and girth were then analyzed by studying the changes in body composition as measured by computerized scanning. Two scans were performed. A scan was performed before treatment with IGF-I and another scan was performed after treatment with IGF-I. These two scans were analyzed by measuring the area of fat so that the effect of treatment with IGF-I could be ascertained.
The effect of IGF-I on body fat was estimated using the visceral adipose tissue (VAT) in abdomen and the subcutaneous adipose tissue (SAT) in the abdomen. The absolute changes in fat and the percent changes in fat were both analyzed. The percent changes were analyzed to guard against subjects with larger amounts of fat being given undue statistical weight in the analyses. […]

[3] = IGF-I administration in human subjects; cited from earlier work
[4] = injected in castrated male sheep; cited from earlier work
[5] = rats, catabolic state induced by diabetes, dexamethasone, or intestinal resection; cited from earlier work
[6] = mini-poodles; cited from earlier work
[7] = Adverse events judged possibly or probably related to study drug; details: glyburide 10 mg BID + rhIGF-I placebo (N = 34)
Experimental: All adverse events occurring during the treatment and post-treatment periods of the study (day 1 to week 14) were monitored through the follow-up evaluation at week 14. Adverse events continuing beyond the follow-up period were monitored until resolution, as appropriate.
In addition to the adverse events described above, hypoglycemia was expected to occur in some subjects. Hypoglycemia was defined as a BG of <50 mg/dL as indicated by the One-Touch Profile BG meter or the clinical laboratory. In the event of repeated hypoglycemic episodes, the glyburide dose could be decreased (during the treatment period only). Symptomatic hypoglycemic episodes, regardless of blood glucose reading, were documented as hypoglycemia.

[8] = IGF-I 20 μg/kg BID, with glyburide or glyburide placebo per label
[9] = IGF-I 40 μg/kg BID, with glyburide or glyburide placebo per label
[10] = subjects treated with 20 micrograms of IGF-I
[11] = IGF-I 20 μg/kg, with glyburide or glyburide placebo per label
[12] = IGF-I 40 μg/kg, with glyburide or glyburide placebo per label
[13] = glyburide 10 mg BID + rhIGF-I placebo
[14] = glyburide active + IGF-I placebo
[15] = glyburide active + IGF-I placebo, abdominal CT, change from baseline

IGF-I: recombinant human insulin-like growth factor-I from Genentech; sterile benzyl alcohol-preserved solution, 70 mg in 7 mL acetate/NaCl, pH 5.4; given SC
BMI Change (SE) Wk 8 [1, 8]: −0.5 (0.2) kg/m^2 | BMI Change (SE) Wk 12 [1, 8]: −1.0 (0.2) kg/m^2 | BMI Change (SE) Wk 14 [1, 8]: −0.9 (0.2) kg/m^2 | BMI Change (SE) Wk 8 [1, 9]: −0.1 (0.2) kg/m^2 | BMI Change (SE) Wk 12 [1, 9]: −0.2 (0.2) kg/m^2 | BMI Change (SE) Wk 14 [1, 9]: −0.6 (0.2) kg/m^2 | BMI fell by, at 12 weeks [1, 10]: 1.0 kg/m^2 | BMI fell by, at week 14 [1, 10]: 0.9 kg/m^2 | Change in SAT, mean (SEM) [2, 11]: −12.3 (4.1) cm^2 | Change in VAT, mean (SEM) [2, 11]: 1.0 (9.0) cm^2 | Mean SAT % Change (SEM) [2, 11]: −6.0 (2.6) % | Mean VAT % Change (SEM) [2, 11]: 1.0 (4.0) % | Change in SAT, mean (SEM) [2, 12]: −16.1 (5.4) cm^2 | Change in VAT, mean (SEM) [2, 12]: −20.0 (7.6) cm^2 | Mean SAT % Change (SEM) [2, 12]: −6.4 (2.5) % | Mean VAT % Change (SEM) [2, 12]: −9.4 (3.9) % | visceral fat area reduced by ([2]; IGF-I alone at 40 μg/kg): ~10% | change in abdominal perimeter by CT scan, mean±SEM ([2]; IGF-I at 20 micrograms/kg): −1.4±0.8 cm | change in abdominal perimeter by CT scan, mean±SEM ([2]; IGF-I at 40 micrograms/kg): −2.9±1.3 cm | effect on body fat and body composition [3]: little effect | effect on body fat [4]: no detectable effect | insulin levels [4]: lowered insulin levels | percentage of body fat [5]: trend toward a lower percentage of body fat | body mass index [6]: reduced body mass index

COc1ccc(Cl)cc1C(=O)NCCc1ccc(S(=O)(=O)NC(=O)NC2CCCCC2)cc1 [Glyburide, glyburide, reference compound]
BMI Change (SE) Wk 12 [1, 13]: 0.0 (0.2) kg/m^2 | BMI Change (SE) Wk 14 [1, 13]: 0.0 (0.3) kg/m^2 | BMI Change (SE) Wk 8 ([1]; glyburide 10 mg BID + rhIGF-I placebo, change from Day 1): −0.1 (0.1) kg/m^2 | Mean SAT % Change (SEM) [2, 14]: 1% and 1.0 (1.9) % | Mean VAT % Change (SEM) [2, 14]: 9% and 9.3 (3.9) % | Change in SAT, mean (SEM) [2, 15]: 2.0 (5.6) cm^2 | Change in VAT, mean (SEM) [2, 15]: 13.6 (6.4) cm^2 | change in abdominal perimeter by CT scan, mean±SEM ([2]; glyburide alone): −0.3±0.8 cm | Adverse event: Arthralgia [7]: 1 (3) n (%) | Adverse event: Asthenia [7]: 2 (6) n (%) | Adverse event: Headache [7]: 2 (6) n (%) | Adverse event: Hypoglycemia [7]: 3 (9) n (%) | Adverse event: Jaw pain [7]: 1 (3) n (%) | Adverse event: Pain [7]: 2 (6) n (%) | Adverse event: Peripheral Edema [7]: 0 n (%)
